Data: patent US9521845B2, “Beta-lactones as antibacterial agents” (LUDWIG-MAXIMILIANS-UNIVERSITÄT-MÜNCHEN, priority 2008, dated 2016)

Columns and labels:
[1] = test system: β-Ketoacyl acyl carrier protein synthase II (KAS II); experiment: ABPP labeling of bacterial proteomes, KAS II; type: binding, L. welshimeri, B. subtilis; details: 50 μM probe, FIGS. 9A and 9B
Excerpt: The library of beta-lactones to be tested comprised compounds with aliphatic or aromatic substitutions varying in length and branching. To evaluate the target selectivity, the beta-lactones were screened against several gram-positive and gram-negative bacterial proteomes including Pseudomonas putida, Listeria welshimeri, Bacillus licheniformis, Bacillus subtilis and Escherichia coli, which are phylogenetically related to pathogenic strains. In addition, mouse liver cytosol was included as an eukaryotic reference proteome. Initial labeling experiments were carried out by adding individual probes at 50 μM concentration to the proteome which is sufficient to achieve full saturation of most targets. […] As an example, labeling of L. welshimeri cytosolic and membrane proteomes as well as B. subtilis cytosolic proteome with a subset of the most complementary probes is shown in FIGS. 9A and 9B. […] Most of the targeted proteins were of low abundance as shown by the direct comparison of the relative intensities observed with Coomassie staining vs. fluorescence scanning (FIG. 11).
Proteome samples were adjusted to a final concentration of 1 mg protein/mL by dilution in PBS prior to probe labeling. […]

[2] = test system: LLO haemolytic activity of L. monocytogenes EGDe; experiment: LLO haemolytic activity testing of culture supernatants; type: cell-based, Listeria monocytogenes EGDe; details: sheep red blood cells
Experimental: Overnight cultures of L. monocytogenes EGDe were harvested by centrifugation and resuspended in an equal volume of fresh BHB medium. In 1.5 mL Eppendorf tubes, 400 μL of BHB medium were inoculated with 4 μL of the resuspended Listeria culture and 4 μL of a corresponding beta-lactone stock in DMSO. The final concentrations were 800 μM, 400 μM, 200 μM, 100 μM and DMSO as control. The amount of DMSO in all tests was 1% of the medium. After mixing, the test tubes were incubated under continuous shaking at 200 rpm at 37° C. for 16 h. Then, cells were centrifuged and the supernatants filtered sterile by passing them through a 0.2 μm pore size filter. Haemolytic activity of LLO in the culture supernatants was quantitatively investigated according to a method described in J. Food Safety 1998, 18: 197-203 (incorporated herein by reference) with some modifications. In Nunclon™ 96-well plates with round shaped wells 100 μL of serial dilutions of the supernatants in PBS were added per well and incubated with 100 μL of 3% SRBC (sheep red blood cells) resuspended in PBS for 15 min at 37° C. under gentle shaking. The 96-well plates were centrifuged at 600 rpm for 5 min and the minimum dilution at which intact blood cells began to form a pellet was recorded. Controls with no lactone were set 100%. Buffer only controls and pure BHB medium yielded no haemolysis.

[3] = test system: haemolysis abilities of Staphylococcus aureus; experiment: Blood agar plate-based haemolysis assay; type: cell-based
Experimental: FIG. 3: Blood agar plate-based assay illustrating that beta-lactones have an effect on the haemolysis abilities of Staphylococcus aureus. 2.5 μL of S. aureus LB dilution (OD600=0.13 corresponding to approx. 1×10^8 cfu/ml) and 2.5 μL DMSO/lactone in DMSO were applied on Whatman Cards placed on 5% sheep blood agar plates (Heipha Diagnostika, Eppelheim, Germany) and incubated at 37° C. over night. A) Direct comparison of beta-lactones as shown in FIG. 2 at a total amount of 250 nmol applied on Whatman Cards. B) Dose down with beta-lactone compounds D3, E2 and G2 at applied concentrations of 100 mM, 50 mM, 25 mM, 12.5 mM, 6.25 mM and 0 mM (corresponding to total amounts of 250 nmol, 125 nmol, 62.5 nmol, 31.3 nmol, 15.6 nmol and 0 nmol, respectively).
2.5 μl, of S. aureus LB dilution (OD600 0.13 corresponding to approx. 1×10^8 cfu/ml) and 2.5 μL DMSO/beta-lactone in DMSO were applied on Whatman Cards placed on 5% sheep blood agar plates (Heipha Diagnostika, Eppelheim, Germany) and incubated at 37° C. over night. FIG. 3A directly compares the β-lactones at a total amount of 250 nmol applied on Whatman Cards. […] For D3 almost no haemolysis is observed down to a total amount of 125 nmol lactone. FIG. 5 illustrates the haemolytic activity of beta-lactone compounds D3, E2 and G2 plotted against the total amount of the respective beta-lactone, whereby a haemolysis zone size of 1.5 mm was set as 100% haemolytic activity. The data shown in FIG. 5 has been corroborated by further experimental testing.
Haemolysis was tested on blood agar plates (5% sheep blood; Heipha Diagnostika, Eppelheim, Germany). Sterile circles of Whatman cards (No. Y) with 5 mm diameter were placed on agar plates and inoculated with 2.5 μL of the corresponding beta-lactone/DMSO and 2.5 μL stationary phase culture of S. aureus diluted to […]. The plates were incubated over night at 37° C. and the diameters of the zones around the bacterial colonies were precisely measured using a vernier caliper.

## C#CCCCC1OC(=O)C1CCCCCCCC=C (stereo not drawn) [D3, trans-3-(8-nonen-1-yl)-4-(4-pentyn-1-yl)oxetan-2-one]
[1]
  KAS II labeling: labeled
[2]; Listeria monocytogenes, Erythrocyte, cultures grown 16 h with lactone, read-out: EC50 of reduction of LLO haemolytic activity
  EC50: 100 µM
[2]; cultures grown 16 h with 100-800 μM lactone
  reduction (inhibition) of haemolytic activity: 80%
[3]; FIG. 5 dose down
  potency ranking in haemolysis dose down (E2, G2, D3): most active
[3]; dose down 250-15.6 nmol
  total amount down to which almost no haemolysis is observed: 125 nmol
[3]; total amount of 250 nmol applied on Whatman Cards, 5% sheep blood agar, 37° C. over night
  haemolytic activity of S. aureus: strongly reduce
